# Laboratory results published in PubChem BioAssay (NCI).
#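 Assay format: 96-well plates, 48-hour exposure. TGI denotes the concentration required for complete inhibition of growth.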
# Key:
# Assay in all cases: inhibition of tumour cell growth, NCI panel, 48 h
# HCT-116 colon = tested on: HCT-116 colon
# HOP-92 NSCLC = tested on: HOP-92 NSCLC
# HT29 colon = tested on: HT29 colon
# OVCAR-3 ovarian = tested on: OVCAR-3 ovarian
# OVCAR-8 ovarian = tested on: OVCAR-8 ovarian
# RXF 393 renal = tested on: RXF 393 renal
# SF-539 CNS = tested on: SF-539 CNS
# SK-OV-3 ovarian = tested on: SK-OV-3 ovarian
# U251 CNS = tested on: U251 CNS
# UACC-62 melanoma = tested on: UACC-62 melanoma
Compound,TGI (HCT-116 colon) [µM],TGI (HOP-92 NSCLC) [µM],TGI (HT29 colon) [µM],TGI (OVCAR-3 ovarian) [µM],TGI (OVCAR-8 ovarian) [µM],TGI (RXF 393 renal) [µM],TGI (SF-539 CNS) [µM],TGI (SK-OV-3 ovarian) [µM],TGI (U251 CNS) [µM],TGI (UACC-62 melanoma) [µM]
C=C1OC(c2ccccc2NC)=NC12CCCCC2,> 100,> 100,> 100,> 100,> 100,> 100,> 100,> 100,> 100,> 100
CN(C)c1ccc(/C=C(\NC(=O)c2ccccc2)c2nn(C)c(=O)o2)cc1,> 100,> 100,> 100,> 100,82.9,> 100,> 100,> 100,54.3,> 100
Cc1cc(S(=O)(=O)/N=C(/C(=C=[N-])C#N)[n+]2ccc(N(C)C)cc2)c(SCC(=O)O)cc1Cl,> 100,70.4,> 100,> 100,> 100,> 100,> 100,> 100,> 100,> 100
CN(C)CCNC(=O)c1cc(Cl)cc2ccc(-c3ccccc3)nc12,10.7,9.35,10.7,15.8,13.2,14.3,9.18,12.8,15.3,6.36
O=C1C=CC=C/C1=C1\N=C(c2ccccc2OCC(=O)c2ccccc2)SS1,> 100,> 100,> 100,> 100,> 100,> 100,> 100,> 100,> 100,> 100
NCCCCNCCCNC(=O)c1nc(-c2nc(CCN)sc2Cl)sc1Cl,> 100,> 100,> 100,> 100,> 100,37.1,> 100,> 100,> 100,> 100
OCCOCn1nncc1Cn1ncc2c(SCc3ccccc3)ncnc21,> 100,> 100,> 100,> 100,> 100,> 100,> 100,> 100,> 100,> 100
COc1ccccc1C1Nn2c(nc3ccccc3c2=O)N1c1ccc(C)cc1 (stereo not given),16,23.1,29.5,18.6,17,24,12.1,15.7,6.68,22.2
O=C1NC2CCCCC2N=C1CC(=O)c1ccc(Br)cc1 (stereo not given),> 100,65.8,> 100,> 100,19.8,> 100,> 100,> 100,> 100,> 100
Cc1cc(C)nc(NS(=O)(=O)c2ccc(Nc3c4ccccc4nc4c(C(=O)N5CCN(CCOS(C)(=O)=O)CC5)cccc34)cc2)n1,> 100,> 100,> 100,> 100,> 100,> 100,> 100,> 100,> 100,> 100
NC(=O)c1csc(C2(O)COC(CO)C2O)n1 (stereo not given),> 100,> 100,> 100,> 100,> 100,> 100,> 100,> 100,> 100,> 100
O=C(OCCN=c1c2ccccc2ccc2ccccc12)c1ccccc1,> 100,> 100,> 100,> 100,> 100,> 100,> 100,> 100,> 100,> 100
O=c1cc(-c2ccncc2)[nH]c2cc3c(cc12)OCO3,> 100,> 100,> 100,> 100,> 100,> 100,> 100,> 100,> 100,> 100
O=c1c(Cc2ccc(Cl)cc2)nnc2sc(-c3ccc(-c4ccc(F)c(Cl)c4)o3)nn12,> 100,> 100,> 100,–,> 100,> 100,> 100,> 100,> 100,> 100
S=C(N/N=C\C(=N/NC(=S)N1CCCCC1)c1ccccc1)N1CCCCC1,6.53,3.88,4.61,3.68,–,3.33,6.7,3.37,3.56,4.1
COC(=O)[C@@H]1CCCCC[C@H]2C(CO)=C(C)C(=O)C12 (stereo not given in full),> 100,> 100,> 100,–,> 100,> 100,> 100,> 100,> 100,> 100
COc1ccc(-c2c3c(n(C4OC(CO)C(O)C(O)C4O)c(=S)c2C#N)CCC3)cc1 (stereo not given),> 100,> 100,> 100,69.6,–,63.6,> 100,> 100,> 100,> 100
CCC1=C(C(C)=O)[C@@H]2CCCCC[C@@H](C(=O)OC)C2C1=O (stereo not given in full),> 100,> 100,> 100,–,> 100,> 100,> 100,> 100,> 100,> 100
